According to patent US8853238B2, “Fused heterocyclic compound and use thereof for pest control” (Sumitomo Chemical Company, Limited, priority 2010, dated 2014):

Experiments:
Type in all cases: in vivo
Aphis gossypii [1] = experiment: Test Example 1: spray on cucumber seedling inoculated with Aphis gossypii; conditions: topical, 144 h; 500 ppm active ingredient (Formulation Example 5 diluted with water); 20 ml sprayed on cucumber seedling with about 30 Aphis gossypii; six days after spraying
Description: On the other hand, on a cucumber seedling (the first true leaf stage) planted in a plastic cup was inoculated with about 30 Aphis gossypii, and leaving it for a day. Twenty ml of each of the above test spray solutions was sprayed on this seedling. Six days after spraying, the number of the surviving Aphis gossypii parasitized on the leaves of the cucumber was examined, and a control value was calculated according to the following equation: Control value (%)={1−(Cb×Tai)/(Cai×Tb))×100 wherein symbols represent as follows: Cb: the number of insects in a non-treated section before treatment, Cai: the number of insects in a non-treated section in observation, Tb: the number of insects in a treated-section before treatment, Tai: the number of insects in a treated-section in observation; wherein the non-treated section represents a section where the test spray solution prepared by diluting the formulation without the present compound in Formulation Example 5 with the same amount of water as in the treated-section was sprayed.

Aphis gossypii [2] = experiment: Test Example 2: root immersion of cucumber seedling, then inoculation with Aphis gossypii; conditions: 168 h; 500 ppm active ingredient; cucumber root part immersed in 5 ml; 30 Aphis gossypii inoculated one day after treatment; examined after further seven days
Description: A root part of a cucumber seedling (the first true leaf stage) from which soil had been washed off was immersed in 5 ml of each of the diluted solutions, and one day after treatment, on the cucumber leaf surface was inoculated with 30 Aphis gossypii (whole stage). After further seven days, the number of insect of living Aphis gossypii parasitized on the leaves of the cucumber was examined, and a control value was calculated according to the following equation: Control value (%)={1−(Cb×Tai)/(Cai×Tb))×100 wherein symbols represent as follows: Cb: the number of insects in a non-treated section before treatment, Cai: the number of insects in a non-treated section in observation, Tb: the number of insects in a treated-section before treatment, Tai: the number of insects in a treated-section in observation; wherein the non-treated section represents a section where the test diluted solution prepared by diluting the formulation without the present compound in Formulation Example 5 with the same amount of water as in the treated-section was used.

Aphis gossypii [3] = experiment: Test Example 3: drench at foot of cucumber seedling, then inoculation with Aphis gossypii; conditions: soil, 144 h; 500 ppm active ingredient; cucumber seedling drenched at its foot with 5 ml, kept 7 days at 25° C.; 30 Aphis gossypii inoculated; examined after 6 days; read-out: Control value
Nilaparvata lugens [4] = experiment: Test Example 4: spray on rice seedling, release of Nilaparvata lugens larvae; conditions: 144 h; 500 ppm active ingredient; rice seedling sprayed with 10 ml; third-fourth instar larvae of Nilaparvata lugens; after 6 days at 25° C.; read-out: Control value
Nilaparvata lugens [5] = experiment: Test Example 5: drench at foot of rice seedling, release of Nilaparvata lugens larvae; conditions: soil, 144 h; 500 ppm active ingredient; rice seedling drenched at its foot with 5 ml, kept 7 days; twenty third-fourth instar larvae of Nilaparvata lugens; examined after 6 days
Description: On the other hand, a rice seedling (2 weeks after sowing, the second leaf stage) planted in a plastic cup was drenched at its foot with 5 ml of each of the diluted solutions, and kept in a greenhouse of 25° C. for 7 days. Twenty third-fourth instar larvae of Nilaparvata lugens were released, and further kept in the greenhouse for 6 days, then the number of insect of living Nilaparvata lugens parasitized on the rice was examined, and a control value was calculated according to the following equation: Control value (%)={1−(Cb×Tai)/(Cai×Tb))×100 wherein symbols represent as follows: Cb: the number of insects in a non-treated section before treatment, Cai: the number of insects in a non-treated section in observation, Tb: the number of insects in a treated-section before treatment, Tai: the number of insects in a treated-section in observation; wherein the non-treated section represents a section where the test diluted solution prepared by diluting the formulation without the present compound in Formulation Example 5 with the same amount of water as in the treated-section was used.

Bemisia tabaci = experiment: Test Example 6: spray on tomato seedling with Bemisia tabaci instar larvae; conditions: 168 h; 500 ppm active ingredient; 20 ml/cup sprayed on tomato seedling with hatched Bemisia tabaci instar larvae; after 7 days at 25° C.
Description: On the other hand, Bemisia tabaci adult was released on a tomato seedling (the third true leaf stage) planted in a polyethylene cup, and made to lay eggs for about 72 hours. The tomato seedling was kept in a greenhouse for 8 days. When instar larvae hatched from the eggs, the above test spray solution was sprayed in the amount of 20 ml/cup. The cup was kept in a greenhouse at 25° C. After the keeping for 7 days, the number of surviving instar larvae on the tomato leaves was examined, and a control value was calculated according to the following equation: Control value (%)={1−(Cb×Tai)/(Cai×Tb))×100 wherein symbols represent as follows: Cb: the number of insects in a non-treated section before treatment, Cai: the number of insects in a non-treated section in observation, Tb: the number of insects in a treated-section before treatment, Tai: the number of insects in a treated-section in observation; wherein the non-treated section represents a section where the test spray solution prepared by diluting the formulation without the present compound in Formulation Example 5 with the same amount of water as in the treated-section was sprayed.

[6] = system: Adoxophyes orana fasciata; experiment: Test Example 8: spray on apple tree, release of Adoxophyes orana fasciata; conditions: in Malus domestica, 168 h; 500 ppm active ingredient; apple tree sprayed with 20 mL/cup; 60 first-instar Adoxophyes orana fasciata; after 7 days; read-out: Death rate
Description: On the other hand, an apple tree was planted in a plastic cup, and grown until the seventh-eighth leaf was spread. The apple tree was sprayed with 20 mL/cup of each of the test spray solution. After the test solution was dried, 60 first-instar Adoxophyes orana fasciata were released, and the cup was covered with a plastic cup upside-down which the bottom was cut off and a filter paper was put thereon. After 7 days, the number of living insects was counted, and a death rate was calculated according to the following equation: Death rate (%)=(Number of dead insects/Number of tested insects)×100

Measured: pest or weed control at 500 ppm

CCSc1ccccc1-c1nc2cc(C(F)(F)C(F)(F)F)cnc2n1C [Present Compound 55, 2-(2-ethylsulfanylphenyl)-3-methyl-6-pentafluoroethyl-3H-imidazo[4,5-b]pyridine]
not listed: [6]
≥ 90%: all other assays above

CCS(=O)(=O)c1cc(C(F)(F)F)ccc1-c1nc2cc(SC(F)(F)F)cnc2n1C [compound 306, 2-(2-ethylsulfonyl-4-trifluoromethylphenyl)-3-methyl-6-trifluoromethylsulfanyl-3H-imidazo[4,5-b]pyridine]
≥ 90%: Aphis gossypii [2] | Aphis gossypii [3] | Nilaparvata lugens [4] | Nilaparvata lugens [5]

CCS(=O)(=O)c1cc(-c2ncccn2)ccc1-c1nc2cc(C(F)(F)F)cnc2n1C [compound 333, 2-[2-ethylsulfonyl-4-(pyrimidine-2-yl)-phenyl)-3-methyl-6-trifluoromethyl-3H-imidazo[4,5-b]pyridine]
≥ 90%: Aphis gossypii [1] | Aphis gossypii [2] | Aphis gossypii [3] | Bemisia tabaci

CCS(=O)(=O)c1cc(C(F)(F)F)ccc1-c1nc2cc(C(F)(F)F)cnc2[nH]1 [compound 345, 2-(2-ethylsulfonyl-4-trifluoromethyl-phenyl)-6-trifluoromethyl-3H-imidazo[4,5-b]pyridine]
not listed: Aphis gossypii [2] | Nilaparvata lugens [4]
≥ 90%: all other assays above
